Results reported in ChEMBL document CHEMBL4177679, “The identification of a novel lead class for phosphodiesterase 2 inhibition by fragment-based drug design” (Bioorg Med Chem Lett, 2017).
Values after ≈ are worked out from the molar mass of the structure shown.

How the values were obtained:
[1] = Solubility of the compound at pH 6.5; assay type: physicochemical; conditions: buffer
rat MDR1A = experiment: Apparent permeability in pig LLC-PK1 expressing rat MDR1A; assay type: ADME, cell-based, Sus scrofa
[2] = Half-life in po dosed rat; assay type: ADME, organism-based; conditions: in vivo
[3] = Clearance in po dosed rat; assay type: ADME, organism-based; conditions: in vivo
[4] = Oral bioavailability in rat; assay type: ADME, organism-based; conditions: in vivo
Rattus norvegicus [5] = experiment: Dose normalized AUC in po dosed rat; assay type: ADME, organism-based; conditions: in vivo
Rattus norvegicus [6] = experiment: Volume of distribution in po dosed rat; assay type: ADME, organism-based; conditions: in vivo

Row | solubility [1] [µM] | SMILES | other results
1 | 176 (≈ 60.3 µg/mL) | Cn1ncc2c(NCc3ccc(C(F)(F)F)cn3)nc(Cl)nc21 | –
2 | 150 (≈ 53.4 µg/mL) | Cn1ncc2c(NCCc3ccc(C(F)(F)F)cc3)nc(Cl)nc21 | –
3 | 164 (≈ 56 µg/mL) | Cn1ncc2c(NCc3ccc(C(F)(F)F)cc3)nc(Cl)nc21 | –
4 | 156 (≈ 57.4 µg/mL) | Cn1ncc2c(NC3(c4ccc(C(F)(F)F)cc4)CC3)nc(Cl)nc21 | –
5 | 175 (≈ 61.1 µg/mL) | Cn1ncc2c(NC3(c4ccc(C(F)(F)F)cc4)CC3)nc(O)nc21 | –
6 | 206 (≈ 40.7 µg/mL) | CNc1nc(Cl)nc2c1cnn2C | –
7 | 159 (≈ 56.6 µg/mL) | C[C@@H](Nc1nc(Cl)nc2c1cnn2C)c1ccc(C(F)(F)F)cc1 | –
8 | 125 (≈ 46.7 µg/mL) | Cn1ncc2c(NC3(c4ccc(C(F)(F)F)cc4)CC3)nc(C3CC3)nc21 | –
9 | – | Cc1nc(NC2(c3ccc(C(F)(F)F)cc3)CC2)c2cnn(C)c2n1 | Papp (rat MDR1A): 0.82 to 26.7 ×10⁻⁶ cm/s; half-life [2]: 1.34 h; CL/F [3]: 44.4 mL/min/kg; bioavailability [4]: 16.9%; AUC/dose (Rattus norvegicus [5]): 0.24 µM·kg·h/mg; Vd (Rattus norvegicus [6]): 3.78 L/kg
10 | 139 (≈ 53.1 µg/mL) | Cn1ncc2c(N3CCCC3c3ccc(C(F)(F)F)cc3)nc(Cl)nc21 (configuration not stated) | –
11 | 44 (≈ 13.6 µg/mL) | Cn1ncc2c(NCc3ccccc3Cl)nc(Cl)nc21 | –
12 | 105 (≈ 37.1 µg/mL) | FC(F)(F)c1ccc(C2(Nc3nc(Cl)nc4[nH]ncc34)CC2)cc1 | Papp (rat MDR1A): 1.63 to 26.5 ×10⁻⁶ cm/s; half-life [2]: 6.33 h; CL/F [3]: 8.44 mL/min/kg; bioavailability [4]: 146%; AUC/dose (Rattus norvegicus [5]): 6.59 µM·kg·h/mg; Vd (Rattus norvegicus [6]): 4.64 L/kg
13 | 78 (≈ 24 µg/mL) | Cn1ncc2c(NCc3cccc(Cl)c3)nc(Cl)nc21 | –
14 | 138 (≈ 54.6 µg/mL) | Cn1ncc2c(N3CCCCC3c3ccc(C(F)(F)F)cc3)nc(Cl)nc21 (configuration not stated) | –
15 | 183 (≈ 67.7 µg/mL) | Cn1ncc2c(NC(C)(C)c3ccc(C(F)(F)F)cc3)nc(Cl)nc21 | –
16 | 145 (≈ 44.7 µg/mL) | Cn1ncc2c(NCc3ccc(Cl)cc3)nc(Cl)nc21 | –
